{"source": "patent US9449726B2", "about": "“100Mo compounds as accelerator targets for production of 99mTc” (Washington University, priority 2013, dated 2016)", "system": "normal CD1 mice", "test": "SPECT/CT imaging of ^99mTc-MDP in small animals", "format": "in vivo", "procedure": "Preparation of ^99mTc-methylene diphosphonate (^99mTc-MDP) and Animal Imaging Studies. All animal studies were approved by the Animal Studies Committee at Washington University. ^99mTc-MDP was prepared using commercially available kits. 3.9 mg of a sterile lyophilized powder containing methylene diphosphonate as the main constituent, under the trade name MDP-BRACCO™ (Bracco Diagnostics Inc., Princeton, N.J.) was dissolved in 135 μL saline solution. From this solution 10 μL was pipetted and added to the 400 μL of 1.6×10^8Bq (4.3 mCi)^99mTcO4^− containing saline solution. Radio-ITLC was performed on this solution as described above. 100 μL of the prepared radiopharmaceutical with an activity of 2.0×10^7 Bq (0.55 mCi) was injected into one month old normal CD1 mice via tail vein followed by small animal SPECT/CT imaging (nanoSPECT, Bioscan, Washington D.C.). CT scans were performed using a tube voltage of 45 kV and a scan time of 1.5 seconds per projection while the animals were anesthetized by isofluorane. SPECT data were collected by monitoring in as helical scan at 45 projections and 60 seconds per projection using a 9-pinhole low energy collimator. SPECT images were collected for 45 minutes at 1.5, 3 and 4 hours post injection. The CT and SPECT images were reconstructed and colocalized using InVivoScope (inviCRO, LLC, Boston Mass.) and HiSPECT (Bioscan, Washington, D.C.).\nIn these experiments, activities of 2.0×10^7Bq of ^99mTc were injected into each mouse. Scan times of 45 minutes were employed in imaging while each mouse was anesthetized with isoflurane. FIG. 5 illustrates SPECT images of mice imaged at (a) 1.5 hours (b) 3 hours and (c) 4 hours post injection.", "note": "Entries after “also recorded” stand apart in the source; their conditions may differ.", "data": [{"smiles": "O.O.O=P([O-])([O-])CP(=O)([O-])[O-].[99Tc+4]", "note": "[^99mTc-MDP, ^99mTc-methylene diphosphonate]", "values": [{"measurement": "SPECT images: uniformity of uptake in the backbone", "setting": "CD1 mice, tail vein", "value": "relatively uniform"}, {"measurement": "SPECT images: activity at the earliest time point", "setting": "CD1 mice, tail vein, 1.5 hours post injection (FIG. 5A)", "value": "activity in the kidneys and bladder as expected; also recorded: activity was seen in the excretory organs as shown in FIG. 5A, namely the kidneys and bladder"}, {"measurement": "SPECT images: change of activity as time progressed", "setting": "CD1 mice, tail vein, 3 hours and 4 hours post injection (FIGS. 5B and 5C)", "value": "clearance of radioactivity from these organs and increased accumulation in the bones and joints"}, {"measurement": "SPECT images: regional uptake in the skeleton", "setting": "CD1 mice, tail vein, backbone and joints", "value": "high activity uptake in the cervical, thoracic and lumbar regions of the backbone and major joints"}, {"measurement": "SPECT images: tissue uptake of ^99mTc", "setting": "one month old normal CD1 mice, tail vein injection, 2.0×10^7 Bq (0.55 mCi), imaged 1.5, 3 and 4 hours post injection", "value": "accumulation of ^99mTc in the bones and joints; also recorded: uptake of the ^99mTc in the bones as expected"}]}]}
